The values that follow come from PMC12684298, “The Parkinson's Disease Drug Tolcapone and Analogues are Potent Glycomimetic Lectin Inhibitors of Pseudomonas aeruginosa LecA” (Angewandte Chemie (International Ed. in English), 2025).

Each structure is given as a SMILES string. Where “and” joins values, the source holds several entries; their conditions need not be identical. Equal values may be shown once. Read-outs that look alike come from different tables or passages of the source.

The target of series [1] is T1, LecA (Pseudomonas aeruginosa, UniProt Q05097).
T1 construct: made in house; host or cells: E. coli BL21 (DE3), plasmid pET25pa11
The series can be described thus: biochemical. It is filed as binding. Here is the method: Therefore, we focused our attention on commercially available nitro‐catechols. Prominent derivatives are inhibitors of the enzyme catechol‐O‐methyltransferase (COMT) and approved drugs for the treatment of Parkinson's disease. Four commercial COMT inhibitors were thus evaluated in a previously reported competitive binding assay based on fluorescence polarisation (FP, Table 1, Figure 1).^[ [32] ^]
The competitive binding assay was performed in analogy to Joachim et al.^[2] 10 µL of a solution containing LecA (40 µM) and sulfo-Cy5-Gal (20 nM, synthesis described in Kuhaudomlarp, Siebs et al.^[5]) in TBS/Ca buffer (20 mM Tris, 147 mM NaCl, 2.6 mM KCl at pH 7.4 supplemented with 1 mM CaCl2) were distributed in into wells of a black 384-well microtiter plate (Greiner Bio-One, Germany, cat no 781900). Then, 10 µL of serial dilutions of compounds (3 mM to 1.5 µM, dilution factor 0.5) in TBS/Ca with 40% DMSO were added in technical triplicates. Final concentrations after mixing were the following: 1.5 mM – 0.73 µM compound, 20 µM LecA, 10 nM sulfo-Cy5-Gal and 20% DMSO. The plate was sealed (EASYseal, Greiner Bio-One, cat no 676001), briefly centrifuged and incubated at room temperature in the dark under shaking conditions. Fluorescence intensity was measured after 1 h and 4 h using a PheraStar FS plate reader (BMG Labtech GmbH, Germany) with spectral filters for excitation at 590 nm and emission at 675 nm and polarization was calculated after blank values of 20 µM LecA in TBS/Ca buffer with 20% DMSO were subtracted from the test compounds. The data were analysed using the four-parameter variable slope model of the MARS Data Analysis software. The top and bottom plateau were assigned based on the control compound methyl α-d-galactoside and the data was reanalysed with these fixed values. If not mentioned otherwise, the experiment was repeated at least three times for each compound and the average and standard deviation are given. In case Triton X-100 was used it was added to the TBS/Ca buffer before the assay.

Series [2] has as its target T1, LecA. In words: biochemical. The note with it: ITC. It is filed as binding. The protocol: Isothermal titration calorimetry was performed on a MicroCal PEAQ-ITC (Malvern Panalytical) at 25 °C and 750 rpm stirring. The cell was filled with LecA (75 - 111 µM) in TBS/Ca buffer (20 mM Tris, 147 mM NaCl, 2.6 mM KCl at pH 7.4 supplemented with 1 mM CaCl2) with 20% DMSO and titrated with ligand (0.75 mM or 1.5 mM, 19 injections) in the same buffer. Data were analysed using the one binding site model in the MicroCal PEAQ-ITC analysis software (Malvern Panalytical). The first injection of each titration was excluded and the baseline subtracted for the final figures. Three titration per compound were performed and the average as well as standard deviation are given.

Series [3] has as its target T1, LecA. In words: Ligand-observed 19F NMR binding and competitive displacement with pNPGal. The conditions noted are these: for 19F NMR peak intensity [%]: 50 µM ligand. Here is the method:
The presence of two fluorine atoms in the high affinity ligand 33 enabled another orthogonal LecA binding experiment (Figure 5c). In analogy to Denavit et al.,^[ [34] ^] ligand‐observed ^19F NMR spectra of 50 µM 33 were recorded in absence and in presence of LecA (100 µM). […] Importantly, the ligand's fluorine signal was restored when pNPGal was added as competitor molecule, indicating the specific and reversible catechol – LecA interaction.
RO0412970 was mixed with trifluoroacetic acid (TFA) as internal standard in non-deuterated TBS/Ca (20 mM Tris, 147 mM NaCl, 2.6 mM KCl at pH 7.4 supplemented with 1 mM CaCl2) and 10% DMSO-d6. From this mixture, one sample with LecA and one without LecA (as control) were prepared. […] Directly after the addition, spectra of both samples were recorded and the data was analysed with MestReNova 14.2.0. The spectra were referenced to TFA (-75.6 ppm) and the peak intensity of RO412970 compared to the internal standard TFA was calculated.

Series [4] has as its target T1, LecA. The conditions noted are these: previous hits; cited from earlier work.
Series [5] deals with T1, LecA. In words: Library screening using the FP competitive binding assay (three concentrations). The note with it: read-out: Activity [%] (% inhibition relative to 500 µM pNPGal). From the text:
Next, we screened a library of catechols from F. Hoffmann‐La Roche, the developer of Tolcapone, in the competitive binding assay to establish a structure–activity relationship. To this end, two sets of compounds with a molecular cut‐off of 500 Da were chosen: a first set of 342 compounds contained derivatives of Tolcapone, while a second set of 3222 compounds comprised catechols covering a larger chemical space. […] Tests were run in a 384‐well‐plate format at three concentrations (first set at 125, 32, and 4 µM, second set at 100, 25, and 3 µM) in presence of 10% DMSO and 250 µM 2‐mercaptoethanol to prevent interference by a potential unspecific reactivity of electron‐rich catechols as established earlier.^[ [30] ^]
The screening followed the same assay by Joachim et al.^[2] as described above. Compounds in DMSO (1 µL with the appropriate concentration) were plated using a robot into black 384-well microtiter plates (Greiner Bio-One, Germany, cat no 781900) by the Roche compound handling facility at four replicates per concentration and compound. A mixture of LecA, sulfo-Cy5-Gal and 2-mercaptoethanol in TBS/Ca (20 mM Tris, 147 mM NaCl, 2.6 mM KCl at pH 7.4 supplemented with 1 mM CaCl2) with DMSO was added at HIPS. Final concentrations in both screening rounds were the following: 5 µM LecA, 250 µM 2-mercaptoethanol, 10 nM sulfo-Cy5-Gal and 10% DMSO. Final concentrations of the 342 compounds of the first screening round were 125 µM, 32 µM and 4 µM. The 3222 compounds of the second screening round were tested at final concentrations of 100 µM, 25 µM and 3 µM. The plate was sealed (EASYseal, Greiner Bio-One, cat no 676001), briefly centrifuged and incubated at room temperature in the dark under shaking conditions. Fluorescence intensities were measured after 1 h and 24 h using a PheraStar FS plate reader (BMG Labtech GmbH, Germany) with spectral filters for excitation at 590 nm and emission at 675 nm and polarization was calculated after blank values of 5 µM LecA in TBS/Ca buffer with 250 µM 2-mercaptoethanol and 10% DMSO were subtracted from the test compounds. The data were analysed using the MARS Data Analysis software. […] All stated values are the average including the standard deviation based on three replicates for 100 µM and four replicates in the case of compounds at 125 µM.

Series [6] concerns the target T1, LecA. In words: Surface plasmon resonance (SPR) direct binding, steady-state affinity. Here is the method: To confirm the affinity of Tolcapone toward LecA in an orthogonal assay, the compound was then evaluated in a direct binding experiment by surface plasmon resonance (SPR).
Using a BIACORE X100, LecA was immobilised on a CM7 chip by standard amine coupling at 25 °C as described previously.^[5] From a 200 mM solution of Tolcapone in 100% DMSO, a 10 mM solution in PBS (supplemented with 0.05% Tween20 and 100 µM CaCl2) was prepared. The final dilutions (0 – 2000 µM) were then prepared by dilution with running buffer (PBS supplemented with 0.05% Tween 20, 100 µM CaCl2 and 5% DMSO). Increasing concentrations of Tolcapone were injected onto the immobilised LecA in steady-state affinity studies (30 s association, 60 s dissociation, flow rate 30 µL/min). Data was corrected by subtraction of the reference channel (no immobilised LecA) and analysed with the BIACORE X100 evaluation software (version 2.0). The average binding affinity and standard deviation of three independent experiments is given.
A general note: In SPR one partner is held on a chip, and binding of the other changes the refractive index at the surface.

For series [7] the following is noted: one of the hydroxy groups; no reference given; cited from earlier work.
Setting [8] is: individual replicate (Repl. 1-3).

T1 sequence (Q05097 whole entry): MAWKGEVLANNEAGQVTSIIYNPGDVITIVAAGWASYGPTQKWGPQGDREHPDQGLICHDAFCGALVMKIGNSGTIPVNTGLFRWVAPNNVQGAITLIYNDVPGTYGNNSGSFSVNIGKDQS

As for `O=C(c1cc(O)c(O)c([N+](=O)[O-])c1)c1c(F)cccc1F` [compound 33], the IC50 in series [1] (IC50, extended dose-response analysis, 20% DMSO, no 2-mercaptoethanol, three experiments) was 94 µM; in series [1] (IC50 in presence of 0.01% Triton X-100, FP assay, 0.01% Triton X-100, one replicate), 81 µM; in series [1] (IC50 in presence of 0.057% Triton X-100, FP assay, 0.057% Triton X-100, one replicate) it was 91 µM. In addition, the “N (sites)” value was 0.82 ± 0.03 and 0.820 in series [2] (average of three titrations); 0.846 and 0.788 and 0.827 in series [2] (setting [8]). The ΔG was -6.6 ± 0.096 kcal/mol and -6.6 kcal/mol in series [2] (average of three titrations); -6.67 kcal/mol and -6.62 kcal/mol and -6.5 kcal/mol in series [2] (setting [8]). Besides, the ΔH in series [2] (average of three titrations) is -5.83 ± 0.526 kcal/mol and -5.83 kcal/mol; in series [2] (setting [8]), -5.31 kcal/mol and -5.83 kcal/mol and -6.33 kcal/mol. The “-TΔS” value in series [2] (setting [8]) is -1.36 kcal/mol and -0.789 kcal/mol and -0.17 kcal/mol. Further, the Kd in series [2] (25 °C, 20% DMSO, average of three titrations) is 15 µM; in series [2] (setting [8]), 13.2 µM and 14.4 µM and 17.3 µM. For the same molecule, the “19F NMR peak intensity [%]” value in series [3] (100 µM LecA, after pNPGal (1 mM)) was found to be 79%; in series [3] (100 µM LecA, before pNPGal), 1%; in series [3] (no LecA, after pNPGal (1 mM), defined as 100%) it was 100%; in series [3] (no LecA, before pNPGal, relative to TFA standard), 106%. Moreover, the “19F NMR intensity ratio catechol/TFA” value amounted to 0.2160 in series [3] (LecA, after pNPGal); 0.0036 in series [3] (LecA, before pNPGal); 0.2752 in series [3] (no LecA, after pNPGal); 0.2923 in series [3] (no LecA, before pNPGal).
On to `O=C(c1ccccc1)c1ccc(O)c(O)c1` [3,4‐dihydroxybenzophenone], for which the Kd in series [4] was 3460 ± 410 µM.
In turn, `Cc1ccc(C(=O)c2cc(O)c(O)c([N+](=O)[O-])c2)cc1` [compound 4, Tolcapone] returned an IC50 in series [1] (IC50, LecA inhibition, competitive binding assay (FP), tested up to 1.5 mM, n ≥ 2) of 257 ± 40 µM. The inhibition at 100 µM in series [5] worked out at 43.9 ± 2.1%. For the same molecule, binding in series [6] was characterised by a dissociation constant (Kd) of 181 ± 6 µM. Also, the pKa in series [7] is reported as around 4.6.

The IC50 is the concentration that gives 50% inhibition. In general, Kd refers to the equilibrium constant for the complex coming apart. By inhibition is commonly meant the relative decrease from the control value, in per cent. By pKa is commonly meant the pH at which an ionisable group is half protonated.
